Our source for the RP-LC retention time values is the METLIN SMRT retention time set (Domingo-Almenara et al. 2019).

Structures are written as SMILES.

A short description of the data set: gradient 5% acetonitrile 3 min, to 50% in 2 min, to 85% in 15 min, held 3 min, 100 µL/min. As to conditions: column: Zorbax Extend-C18 2.1 x 50 mm; eluents: water / acetonitrile, 0.1% formic acid. In a few lines:
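The mobile phases were water and acetonitrile, each with 0.1% formic acid, pumped at 100 μL/min through a Zorbax Extend-C18 column (2.1 × 50 mm, 1.8 μm). Pure standards were injected as mixtures of ~100 molecules and detected by a quadrupole time-of-flight mass spectrometer in positive and negative ionization mode. Retention time came from computationally picked adduct peaks, each inspected by hand.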
For the compound `CCOc1ccccc1N1CCN(C(=O)Cn2ccc3c(c(C)nn3-c3ccccc3)c2=O)CC1`, the RP-LC retention time was determined as 844 s.
To `CCCCOc1ccc(C(=O)N2CCN(c3cc(C)nc(N4CCOCC4)n3)CC2)cc1` belongs 720 s.
With `O=C(Nc1ccc(F)cc1)N1CCCC1c1nc(-c2ccccc2)no1` (stereo not drawn) the figure was 947 s; with `COc1cccc2c1OC1(C)CC2C(S(=O)(=O)c2ccc(C(C)C)cc2)C(=O)N1` (stereo not drawn), 938 s.
Turning to `CCOc1ccc(N2C(=O)C3N=NN(Cc4nc(-c5ccccc5OCC)no4)C3C2=O)cc1` (stereo not drawn), the RP-LC retention time was determined as 980 s.
Consider `Cn1c(=O)c(C(=O)NCc2ccccc2)nc2cccnc21`, for which the RP-LC retention time worked out at 735 s.
To `Cc1cnc(C(=O)NCC2CCCCC(=O)N2)cn1` (stereo not drawn) belongs 593 s; to `CCCCOc1ccc(CNC(=O)c2ccc3c(c2)N(C)C(=O)C2CCCCN32)cc1` (stereo not drawn), 843 s.
In the case of `COc1ccc(C(=O)NC2CCN(c3cc(-c4ccccc4)[nH]n3)C2)cc1OC` (stereo not drawn), the RP-LC retention time was 663 s.
With `c1ccc2sc(SCc3cn4cccnc4n3)nc2c1` the figure was 622 s; with `Cc1ccccc1N1CCN(C(=O)c2ccnc(N3CCCC3)n2)CC1`, 996 s.
With `Cc1cccc2nnc(N3CCCC(C(=O)NCc4cccs4)C3)n12` (stereo not drawn), the RP-LC retention time is 659 s.
In the case of `CC(C)c1noc(-c2cc(=O)n(CC(=O)Nc3cccc(Cl)c3)c3ccccc23)n1`, the RP-LC retention time was 1070 s.
Compound `CCOc1ccccc1NC(=O)Nc1ccc(CC(=O)NCC(F)(F)F)cc1` displayed an RP-LC retention time of 815 s.
In turn, `CCOC(=O)Cc1ccc(NC(=O)NCc2c(C)nn(CC)c2C)cc1` gave an RP-LC retention time of 649 s.
Compound `CCN1C(=O)COc2ccc(-c3csc(NC(=O)CCC4CCCCC4)n3)cc21` had an RP-LC retention time of 934 s.
To `Cc1nn(-c2ccccc2)c2c1N(CC(=O)N1CCN(c3ccc(F)cc3)CC1)C(=O)CS2` belongs 915 s.
In turn, `Cc1ccc(C)c(Nc2c(-c3ccccc3)nc3ncccn23)c1` returned an RP-LC retention time of 815 s.
`Cc1cc(C)cc(NC(=O)C2CCN(S(=O)(=O)c3c(C)[nH]c(C)c3C(=O)N3CCCC3)CC2)c1` yielded an RP-LC retention time of 695 s.
As to `O=C(NCC#CCN1CCc2ccccc2C1)NC1CCCCC1`, the RP-LC retention time came out at 566 s.
Take `COc1cccc(NC(=O)N2CCC3(CC2)N=C(c2cccc(Cl)c2)C(=O)N3)c1`: the RP-LC retention time came out at 878 s.
Regarding `Cc1ccc(NC(=O)C2CCC(=O)N2S(=O)(=O)c2ccc(C)c(C)c2)cc1C` (stereo not drawn), the RP-LC retention time amounted to 1040 s.
As to `Nc1ccc(SCC(=O)Nc2nc(-c3ccccc3)cs2)cc1`, the RP-LC retention time was determined as 817 s.
The compound `Cn1nccc1-c1cccc(-c2noc(-c3cc(F)ccc3F)n2)c1` had an RP-LC retention time of 1100 s.
The compound `COc1cc(OC)cc(-c2nnc(Cc3nc(-c4cccc(C)c4)no3)o2)c1` came in with an RP-LC retention time of 1080 s.
`CCC(Oc1ccc(-c2cnc3ccccc3n2)cc1)C(=O)N1CCN(c2ncccn2)CC1` (stereo not drawn) had an RP-LC retention time of 942 s.
Consider `COc1ccc(-c2nc3cnccn3c2NCc2ccccc2)cc1`, for which the RP-LC retention time worked out at 719 s.
`O=C(NCCn1nc(-c2ccco2)ccc1=O)c1ccc2c(c1)ncn2-c1ccccc1` had an RP-LC retention time of 629 s.
On to `CCn1cc(CN2CC(F)(F)C[C@H]2COc2ccncc2)c2ccccc21`, for which the RP-LC retention time came to 670 s.
The compound `COc1ccc2nc(N3CCC(C(=O)N4CCN(c5ccccn5)CC4)CC3)sc2c1` showed an RP-LC retention time of 578 s.
For `CCCn1c(CCNC(=O)c2ccc(C)c(F)c2)nc2cccnc21`, the RP-LC retention time came out at 695 s.
Regarding `CC1(C(=O)NC2CCCC2)Cn2cnc(C(=O)NCc3ccccc3F)c2C(=O)N1C1CC1` (stereo not drawn), the RP-LC retention time was 778 s.
`CCCN1CCN(C(=O)CC(C)S(=O)(=O)c2ccc3c(c2)CCN3C(C)=O)CC1` (stereo not drawn) had an RP-LC retention time of 586 s.
As to `O=C(Nc1ccc2c(c1)N(C(=O)c1cccs1)CC2)c1c(F)cccc1Cl`, the RP-LC retention time was determined as 857 s.
`CCn1ccc(C(=O)N2CCCC2c2cccc(F)c2)n1` (stereo not drawn): the RP-LC retention time was 840 s.
In turn, `CS(=O)(=O)N1CCC(OC2CCN(C(=O)Nc3ccc(Cl)cc3F)CC2)CC1` gave an RP-LC retention time of 783 s.
In turn, `Cc1ccc(C)c(-c2csc(Cc3nc(-c4ccc(F)cc4)no3)n2)c1` gave an RP-LC retention time of 1300 s.
To `Cc1ccc(NC(=O)N2CCc3c(c(-c4nc(C5CC5)no4)nn3C)C2)cc1` belongs 867 s.
To `CCc1cccc(NS(=O)(=O)c2cc(-c3[nH]ncc3C(=O)N3CCCC3)oc2C)c1` belongs 760 s.
`O=c1ccn(-c2ccccc2)nc1-c1nc(-c2ccc3c(c2)OCO3)no1` displayed an RP-LC retention time of 835 s.
In turn, `O=C(Nc1ccc(F)c(Cl)c1)N1CCN(CCn2c(-c3ccncc3)nc3cccnc32)CC1` registered an RP-LC retention time of 627 s.
As for `COc1ccc(NC(=O)c2cnc3c(c2)c(=O)n(C)c(=O)n3-c2ccccc2)cc1`, the RP-LC retention time worked out at 862 s.
For the compound `COCCc1noc([C@@H]2CN(Cc3ccc4[nH]ccc4c3)C[C@H]2CO)n1`, the RP-LC retention time came out at 592 s.
Compound `COc1cccc(C(C)NC(=O)C2CCCN(c3nccnc3Sc3ccc(C)cc3)C2)c1` (stereo not drawn) yielded an RP-LC retention time of 1120 s.
With `CCOc1ccc(-c2noc(Cn3cnc4c(cnn4-c4ccc(OC)cc4)c3=O)n2)cc1OC` the figure was 973 s; with `Cc1nn(-c2ccc(F)cc2)c(C)c1S(=O)(=O)N1CCC(C(=O)NCC2CCCO2)CC1` (stereo not drawn), 742 s; with `CC(NC(=O)Cc1nnc(-c2ccc3ncccc3c2)o1)c1ccccc1` (stereo not drawn), 690 s.
As for `O=C(NCC1CCCO1)C1CCN(C(=O)c2ncn3c2COC(c2ccc(F)cc2)C3)CC1` (stereo not drawn), the RP-LC retention time was determined as 658 s.
In turn, `CCc1cc(=O)n(CC(=O)Nc2ccccc2C)c(N2CCOCC2)n1` yielded an RP-LC retention time of 658 s.
`O=C(NC1CCN(c2cc(-c3ccc(Cl)cc3)[nH]n2)C1)c1cccc(Br)c1` (stereo not drawn) showed an RP-LC retention time of 870 s.
To `CC1(C)C(=O)N(CC(=O)Nc2cccc(F)c2)c2ccccc21` belongs 886 s; to `O=C(c1cccs1)N1N=C(c2cccs2)CC1c1cc([N+](=O)[O-])ccc1O` (stereo not drawn), 876 s.
For the compound `Cc1ccc(Cn2c(CN3CCC(C(=O)N4CCCC4)CC3)cc3ccccc32)cc1`, the RP-LC retention time turned out to be 750 s.
Compound `CCN1c2cc(C(N)=O)ccc2C(=O)N2CCCCCC21` (stereo not drawn) returned an RP-LC retention time of 649 s.
`CC(=O)Nc1nsc(N2CCCC(C(=O)N3CCN(c4cc(C)ccc4C)CC3)C2)n1` (stereo not drawn) registered an RP-LC retention time of 843 s.
On to `Cc1ccc(CC(=O)N2CCN(c3cc(-c4ccc(C)cc4)ncn3)CC2)cc1`, for which the RP-LC retention time was 704 s.
In turn, `Cc1cccc(-c2nc(N3CCCC3)ncc2C(=O)O)c1` returned an RP-LC retention time of 819 s.
Take `COc1ccc(CCC(=O)N2CCCC(C)(C(=O)NCc3ccc(C)cc3)C2)cc1` (stereo not drawn): the RP-LC retention time worked out at 932 s.
For the compound `CC(=O)N1CCc2[nH]c3ccc(C(=O)NCc4ccc(N5CCN(C)CC5)cc4)cc3c2C1`, the RP-LC retention time was found to be 573 s.
`O=C(NCCc1cccs1)c1c(O)c2cccnc2n(-c2cccc(F)c2)c1=O` came in with an RP-LC retention time of 1180 s.
Turning to `COCCCNC(=O)CCc1c(-c2ccc(F)cc2)nc2ccccn12`, the RP-LC retention time is 592 s.
`O=C(Cn1cc(-c2ccccc2)c2ncnc(N3CCOCC3)c21)N1CCCCC1`: the RP-LC retention time was determined as 700 s.
With `COc1c(C(=O)N2CCN(CC(C)C)CC2)sc2cc(Cl)ccc12` the figure was 697 s; with `COc1ccc(S(=O)(=O)CCCC(=O)Nc2nccs2)cc1`, 661 s.
For the compound `CC1(C)CC(=O)C2=C(C1)N(CC1CCCO1)C(=O)C2(NC(=O)c1ccc(Cl)cc1)C(F)(F)F` (stereo not drawn), the RP-LC retention time stood at 975 s.
`Cc1ccccc1NC(=O)CN1C(=O)CC(c2ccccc2)S(=O)(=O)c2ccccc21` (stereo not drawn): the RP-LC retention time amounted to 894 s.
Turning to `COc1cc(OC)cc(C(=O)NC(C)C(=O)Nc2nc3ccccc3[nH]2)c1` (stereo not drawn), the RP-LC retention time was determined as 656 s.
In turn, `Cc1nnc(N2CCCC(C(=O)NCc3ccc(Cl)cc3)C2)c2nn(-c3ccccc3)c(C)c12` (stereo not drawn) showed an RP-LC retention time of 760 s.
Consider `Cc1cc2[nH]c(C(=O)Nc3ccc(F)cc3F)c(CN3CCOCC3)c2s1`, for which the RP-LC retention time is 710 s.
Compound `O=c1c2cc3c(cc2nc(SCc2nc(-c4cccc(F)c4)no2)n1-c1ccc(F)cc1)OCO3` displayed an RP-LC retention time of 1170 s.
For the compound `CC1CCN(c2nnc(-n3cccc3CN3CCN(c4ccccn4)CC3)s2)CC1`, the RP-LC retention time came out at 658 s.
`Cc1cccc(CNC(=O)C2CCN(S(=O)(=O)c3cn(C(C)C)cn3)CC2)c1` yielded an RP-LC retention time of 773 s.
`COCCCNC(=O)NC(C(=O)N1CCc2ccccc21)c1ccccc1` (stereo not drawn) showed an RP-LC retention time of 798 s.
The compound `Cc1cc(C)c(S(=O)(=O)N2CCCC2c2nncn2Cc2ccncc2)c(C)c1` (stereo not drawn) displayed an RP-LC retention time of 617 s.
For the compound `Cc1ccccc1Nc1c(-c2cccc(Br)c2)nc2cccc(C)n12`, the RP-LC retention time was found to be 833 s.
In turn, `Cc1noc2ncn(CC(=O)Nc3ccccc3Br)c(=O)c12` displayed an RP-LC retention time of 761 s.
To `Cc1cnc(C2CCOCC2)n1C1CCN(C(=O)NC2CCCCC2)CC1` belongs 611 s.
The compound `O=C(Cn1cnc(-c2noc(-c3ccc(F)cc3)n2)c1)NCc1ccc(Cl)cc1` displayed an RP-LC retention time of 917 s.
